From patent US11691972B2, “Compounds for targeted degradation of BRD9” (C4 Therapeutics, Inc., priority 2020, dated 2023) come the findings set out here.

This experiment concerns the target T1, BRD9 (Homo sapiens, UniProt Q9H8M2).
T1 sequence (Q9H8M2 1-597): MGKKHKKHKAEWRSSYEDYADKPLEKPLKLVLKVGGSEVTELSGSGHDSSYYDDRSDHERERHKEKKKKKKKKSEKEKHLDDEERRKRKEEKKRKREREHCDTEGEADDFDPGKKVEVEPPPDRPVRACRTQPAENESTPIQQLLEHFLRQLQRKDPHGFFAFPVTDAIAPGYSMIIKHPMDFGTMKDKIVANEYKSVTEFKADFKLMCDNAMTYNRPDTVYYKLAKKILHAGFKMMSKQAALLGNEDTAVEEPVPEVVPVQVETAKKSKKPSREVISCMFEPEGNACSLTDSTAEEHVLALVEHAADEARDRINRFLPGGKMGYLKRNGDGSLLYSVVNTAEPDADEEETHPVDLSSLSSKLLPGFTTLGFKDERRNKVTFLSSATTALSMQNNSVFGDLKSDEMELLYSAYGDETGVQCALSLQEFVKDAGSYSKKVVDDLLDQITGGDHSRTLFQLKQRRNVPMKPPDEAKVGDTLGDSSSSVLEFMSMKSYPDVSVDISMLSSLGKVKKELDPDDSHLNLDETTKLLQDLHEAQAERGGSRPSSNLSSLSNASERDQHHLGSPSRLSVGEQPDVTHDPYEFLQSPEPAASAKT
In words: HiBiT BRD9 degradation assay in 293T.166 (BRD9-HiBiT) cells. Format: cell-based. Further details: endogenously expressing BRD9 with HiBiT fusion tag via CRISPR; host or cells: 293T.166 (BRD9-HiBiT), also expressing LgBiT ectopically. The following applies: 293T.166 cells, 2.0 hours, class symbols, read-out: HiBiT-Degradation 293T.166 BRD9 2.0 hours (DC50). In a few lines: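 Luminescence from the Nano-Glo HiBiT lytic reagent quantified BRD9 loss after compounds (top 10 μM, half-log, 11 points, duplicates) were incubated 2 h at 37° C. with 10,000 293T.166 BRD9-HiBiT/LgBiT cells per well, with controls lacking compound or lacking reagent.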

Each structure is given as a SMILES string. Read-outs that look alike come from different tables or passages of the source.

What is called DC50 is the concentration at which degradation of the target reaches its halfway point. On to `CC(c1ccc(-c2cn(C)c(=O)c3cc(F)ccc23)cc1OC(F)(F)F)N1CCC(C2CCN(c3ccc(NC4CCC(=O)NC4=O)cc3F)CC2)CC1` (stereo not shown) [Compound 93], for which the DC50 (Table 1) is below 100 nM. Consider `COc1cc(-c2cn(C)c(=O)c3[nH]ncc23)cc(OC)c1Cc1ccc(CC(=O)N2CCC(c3ccc(NC4CCC(=O)NC4=O)cc3)CC2)cc1` (stereo not shown) [Compound 207, 3-[4-[1-[2-[4-[[2,6-dimethoxy-4-(6-methyl-7-oxo-1H-pyrazolo[3,4-c]pyridin-4-yl)phenyl]methyl]phenyl]acetyl]-4-piperidyl]anilino]piperidine-2,6-dione], for which, under “Table 1”, the DC50 is below 100 nM. The same measure, in the same setting: under `COc1cc(-c2cn(C)c(=O)c3[nH]ncc23)cc(F)c1CN1CCN(C(=O)CN2CCC(c3ccc(NC4CCC(=O)NC4=O)cc3Cl)CC2)CC1` (stereo not shown) [Compound 24] stands below 100 nM; under `COc1cc(-c2cn(C)c(=O)c3[nH]ncc23)cc(F)c1CN1CCN(C(=O)CN2CCC(c3ccc(NC4CCC(=O)NC4=O)cc3)C(F)(F)C2)CC1` (stereo not shown) [Compound 33], below 100 nM; under `CN(C(=O)N1CCC(c2ccc(NC3CCC(=O)NC3=O)cc2F)CC1)C1CCN(C(=O)c2ccc(-c3cn(C)c(=O)c4cnccc34)cc2OC(F)(F)F)CC1` (stereo not shown) [Compound 138], below 100 nM. As for `COc1cc(-c2cn(C)c(=O)c3ccccc23)cc(OC)c1CN1CCN(C(=O)CN2CCC(c3ccc(NC4CCC(=O)NC4=O)cc3)CC2)CC1` (stereo not shown) [Compound 28], for the setting “Table 1”, the DC50 is below 100 nM. Regarding `Cn1cc(-c2ccc(CN3CCC(N4CCN(c5ccc(NC6CCC(=O)NC6=O)nc5)CC4)C(F)(F)C3)c(OC(F)(F)F)c2)c2ccncc2c1=O` (stereo not shown) [Compound 253, 3-[[5-[4-[3,3-difluoro-1-[[4-(2-methyl-1-oxo-2,7-naphthyridin-4-yl)-2-(trifluoromethoxy)phenyl]methyl]-4-piperidyl]piperazin-1-yl]-2-pyridyl]amino]piperidine-2,6-dione], the DC50 (Table 2) is below 100 nM. `COc1cc(-c2cn(C)c(=O)c(C)c2C)cc(OC)c1CN1CCN(C(=O)CN2CCC(c3ccc(NC4CCC(=O)NC4=O)cc3)CC2)CC1` (stereo not shown) [Compound 30]: the DC50 (Table 1) is below 100 nM.

Turning to `Cn1cc(-c2ccc(CN3CCN(C(=O)CN4CCC(c5ccc(NC6CCC(=O)NC6=O)cc5)CC4)CC3)c(OC(F)(F)F)c2)c2cn[nH]c2c1=O` (stereo not shown) [Compound 20], where the note is “Table 1”, the DC50 was below 100 nM. For `COc1cc(-c2cn(C)c(=O)c3[nH]ncc23)cc(OC)c1CN1CCN(C(=O)CC2CCN(c3ccc(NC4CCC(=O)NC4=O)cc3C(F)(F)F)CC2)CC1` (stereo not shown) [Compound 52, 3-[4-[4-[2-[4-[[2,6-dimethoxy-4-(6-methyl-7-oxo-1H-pyrazolo[3,4-c]pyridin-4-yl)phenyl]methyl]piperazin-1-yl]-2-oxo-ethyl]-1-piperidyl]-3-(trifluoromethyl)anilino]piperidine-2,6-dione], where the note is “Table 1”, the 50% degradation concentration (DC50) is below 100 nM. For the molecule `COc1cc(-c2cn(C)c(=O)c3[nH]ncc23)cc(OC)c1CN1CC[C@@H](NC(=O)CN2CCC(c3ccc(NC4CCC(=O)NC4=O)cc3)CC2)C1` (stereo in doubt) [Compound 69, N-[1-[[2,6-dimethoxy-4-(6-methyl-7-oxo-1H-pyrazolo[3,4-c]pyridin-4-yl)phenyl]methyl]pyrrolidin-3-yl]-2-[4-[4-[(2,6-dioxo-3-piperidyl)amino]phenyl]-1-piperidyl]acetamide], the DC50 (Table 1) lay in the range of 100 to 500 nM. Take `COc1cc(-c2cn(C)c(=O)c3cnccc23)cc(OC)c1CN1CCC(N2CCN(c3ccc(NC4CCC(=O)NC4=O)cc3F)CC2)C(F)(F)C1` (stereo not shown) [Compound 184]: the DC50 (Table 1) is below 100 nM. Same read-out and setting: under `COc1cc(-c2cn(C)c(=O)c3cnccc23)cc(Cl)c1C(=O)N1CCC(N2CCN(c3ccc(NC4CCC(=O)NC4=O)cc3F)CC2)C(F)(F)C1` (stereo not shown) [Compound 224] stands below 100 nM. Take `COc1cc(-c2cn(C)c(=O)c3cnccc23)cc(Cl)c1CN1CCC(C2CCN(c3ccc(NC4CCC(=O)NC4=O)cc3F)CC2)CC1` (stereo not shown) [Compound 78]: the DC50 (Table 1) was below 100 nM. `COc1cc(-c2cn(C)c(=O)c3[nH]ncc23)cc(Cl)c1CN1CCC(CCC2CCN(c3ccc(NC4CCC(=O)NC4=O)cc3F)CC2)CC1` (stereo not shown) [Compound 148]: the DC50 (Table 1) was below 100 nM.

On to `COc1cc(-c2cn(C)c(=O)c3cnccc23)cc(Cl)c1CN1CCC(CC(=O)N2CCC(c3ccc(NC4CCC(=O)NC4=O)cc3)CC2)CC1` (stereo not shown) [Compound 44], for which the DC50 (Table 1) is below 100 nM. Turning to `COc1cc(-c2cn(C)c(=O)c(C)c2C)cc(Cl)c1C(=O)N1CCC(CCC2CCN(c3ccc(NC4CCC(=O)NC4=O)cc3F)CC2)CC1` (stereo not shown) [Compound 243], under “Table 1”, the DC50 was below 100 nM. `COc1cc(-c2cn(C)c(=O)c3cnccc23)cc(Cl)c1C(=O)N1CCC(CCC2CCN(c3ccc(NC4CCC(=O)NC4=O)cc3F)CC2)CC1` (stereo not shown) [Compound 241, 3-[4-[4-[2-[1-[2-chloro-6-methoxy-4-(2-methyl-1-oxo-2,7-naphthyridin-4-yl)benzoyl]-4-piperidyl]ethyl]-1-piperidyl]-3-fluoro-anilino]piperidine-2,6-dione]: the half-maximal degradation concentration (DC50) (Table 1) is below 100 nM. As to `COc1cc(-c2cn(C)c(=O)c3[nH]ncc23)cc(OC)c1CC1CCN(CCN2CCC(c3ccc(NC4CCC(=O)NC4=O)cc3)CC2)CC1` (stereo not shown) [Compound 168, 3-[4-[1-[2-[4-[[2,6-dimethoxy-4-(6-methyl-7-oxo-1H-pyrazolo[3,4-c]pyridin-4-yl)phenyl]methyl]-1-piperidyl]ethyl]-4-piperidyl]anilino]piperidine-2,6-dione], the DC50 (Table 1) is below 100 nM.

For `COc1cc(-c2cn(C)c(=O)c3cnccc23)cc(F)c1CN1CCC(C2CCN(c3ccc(NC4CCC(=O)NC4=O)cc3C(F)(F)F)CC2)CC1` (stereo not shown) [Compound 87], the DC50 (Table 1) is below 100 nM. Consider `COc1cc(-c2cn(C)c(=O)c(C)c2C)cc(OC)c1CN1CCC(N2CCN(c3ccc(NC4CCC(=O)NC4=O)cc3F)CC2)C(F)(F)C1` (single isomer, unassigned) [Compound 174, 3-[4-[4-[1-[[2,6-dimethoxy-4-(1,4,5-trimethyl-6-oxo-3-pyridyl)phenyl]methyl]-3,3-difluoro-4-piperidyl]piperazin-1-yl]-3-fluoro-anilino]piperidine-2,6-dione], for which the DC50 (Table 1) is below 100 nM. Take `COc1cc(-c2cn(C)c(=O)c3[nH]ncc23)cc(OC)c1CN1CCN(C(=O)CC2(O)CCN(c3ccc(NC4CCC(=O)NC4=O)cc3C(F)(F)F)CC2)CC1` (stereo not shown) [Compound 68, 3-[4-[4-[2-[4-[[2,6-dimethoxy-4-(6-methyl-7-oxo-1H-pyrazolo[3,4-c]pyridin-4-yl)phenyl]methyl]piperazin-1-yl]-2-oxo-ethyl]-4-hydroxy-1-piperidyl]-3-(trifluoromethyl)anilino]piperidine-2,6-dione]: under “Table 1”, the DC50 is below 100 nM. With `COc1cc(-c2cn(C)c(=O)c3cnccc23)cc(Cl)c1CN1CCC(C2CCN(c3ccc(NC4CCC(=O)NC4=O)cc3Cl)CC2)CC1` (stereo not shown) [Compound 77], the DC50 (Table 1) was below 100 nM. As to `COc1cc(-c2cn(C)c(=O)c(C)c2C)cc(Cl)c1C(=O)N1CCC(C2CCN(c3ccc(NC4CCC(=O)NC4=O)cn3)CC2)CC1` (stereo not shown) [Compound 218, 3-[[6-[4-[1-[2-chloro-6-methoxy-4-(1,4,5-trimethyl-6-oxo-3-pyridyl)benzoyl]-4-piperidyl]-1-piperidyl]-3-pyridyl]amino]piperidine-2,6-dione], the DC50 (Table 1) was below 100 nM. Turning to `COc1cc(-c2cn(C)c(=O)c3cnccc23)cc(Cl)c1C(=O)N1CCC(CCC2CCN(c3ccc(NC4CCC(=O)NC4=O)cc3C(F)(F)F)CC2)CC1` (stereo not shown) [Compound 242], under “Table 1”, the DC50 was below 100 nM.
